“And” between values parts separate entries of the source, which are not always exact repeats. Identical values can stand only once.
How the values were obtained:
HBL melanoma cell line = conditions: 5 MBq 177Lu-DOTATATE for 4 h and/or BSO 10^−7 M from the day before irradiation until day 10, crystal violet day 10, % of non-treated, mean ± SEM, n = 12 from 3 independent experiments
[1] = tested on: total glutathione in EJM tumours; assay: Total glutathione in EJM tumours; type: in vivo, mouse; conditions: BSO 10 mM via drinking water (2 mmol/kg/day), summary in discussion
Method: (§1) Mice experiments were approved by the animal ethics committee of Université Libre de Bruxelles (Comité d’Ethique du Bien-Etre Animal (CEBEA)) and performed according to European guidelines. Female athymic nude Foxn1^nu mice (Charles River) (age = 5 to 6 weeks) were subcutaneously injected in the right flank with 1 × 10^6 EJM cells suspended in 100 µL of PBS and matrigel (1:1; Cultrex™ Basement Membrane Extract, Type 3, R&D Systems). The tumours were allowed to grow for 4 weeks before initiating treatments. At a tumour size of approximately 0.5 cm^3, mice were randomized into 4 treatment groups of 10 mice: control, ^177Lu-DOTATATE, BSO and ^177Lu-DOTATATE + BSO. […] All mice were monitored three times a week for body weight and tumour growth using a calliper. Tumour volume (mm^3) was calculated using the formula π/6 × length × width × height. The relative tumour volume was represented and calculated as (tumour volume on measured day)/(tumour volume measured at baseline). […] Another group of mice receiving ^177Lu-DOTATATE alone or in combination with BSO was sacrificed 24, 72 and 168 h post-injection (p.i.) for ex vivo biodistribution studies and early glutathione quantification (4 mice per group per time point) (Figure 1).

kidneys = assay: H&E staining of kidneys; conditions: mouse, in vivo
Method: (§2) Liver and kidneys were harvested, fixed in PAXgene Tissue FIX (Qiagen, Hilden, Germany) for 1 day at room temperature and kept at 4 °C in PAXgene Tissue STABILIZER (Qiagen) until they were embedded in paraffin for histological studies. Staining was carried out on 4 μm paraffin-embedded tissue sections subsequently deparaffinized in xylene and rehydrated in decreasing alcohol concentrations. Slides were incubated in Mayer’s hematoxylin for 6 min and subsequently in eosin for 3 min. Slides were mounted using Tissue-Tek Prisma (Sakura, Alphen aan den Rijn, The Netherlands). Digital scans of slides were acquired with Nanozoomer NDP (Hamamatsu Photonics, Shizuoka, Japan) and analysed by an experienced clinical pathologist.

[2] = cited from earlier work
Method: The optimal combination treatment schedule would still have to be determined, which would be the one allowing the use of the minimal effective dose of BSO, i.e., the dose necessary to achieve sufficient tumour GSH depletion to have an efficient tumour radiosensitization, without excessive healthy tissue toxicity. The rapid clearance of BSO (estimated half-life in plasma of less than 2 h) and the rapid rate of GSH turnover would allow one to closely control GSH levels with BSO and allow for a GSH depletion only during tumour irradiation with ^177Lu-DOTATATE, limiting the potential ...

[3] = tested on: COLO-677 multiple myeloma cell line; conditions: 5 MBq 177Lu-DOTATATE for 4 h and/or BSO 10^−7 M from the day before irradiation until day 10, crystal violet day 10, % of non-treated, mean ± SEM, n = 12 from 3 independent experiments
[4] = tested on: total glutathione in COLO-677 cells; assay: Total glutathione quantification, COLO-677; type: cell-based, human; conditions: 10^−7 M BSO for 18 h, vs non-treated, n = 6 from 2 independent experiments
Method: (§3) Total glutathione was assessed in cell lines and mice tissues using the Quantification kit for oxidized and reduced glutathione (Sigma), according to the manufacturer’s instructions. Cells in culture were harvested, washed and then lysed with freeze-thaw cycles and subsequently mixed with 5% 5-sulfosalicylic acid. After centrifugation at 8000× g for 10 min, the supernatant was collected, and the 5-sulfosalicylic acid concentration was reduced to 0.5% with water for glutathione quantification. Tumour, liver and kidneys were harvested, snap-frozen in liquid nitrogen and stored at −70 °C until assayed for glutathione. Tissues were homogenized in 5% 5-sulfosalicylic acid in lysing matrix D tubes (MP Biomedicals) containing ceramic beads using a FastPrep-24 homogenizer (MP Biomedicals, Irvine, CA, USA) and centrifuged at 8000× g for 10 min. The supernatant was collected, and the 5-sulfosalicylic acid concentration was reduced to 0.5% with water for glutathione quantification. The buffer solution was added to samples (either from cell lines or tissues) (in triplicates) in a 96-well plate. […] Absorbance was read at 405 nm using a microplate reader (Thermo Labsystems Multiskan EX, ThermoFisher, Waltham, MA, USA). Total glutathione concentration was determined using a calibration curve.

[5] = tested on: EJM multiple myeloma xenograft; assay: Tumour growth (calliper), EJM xenograft; type: in vivo, mouse; conditions: 30 MBq 177Lu-DOTATATE IV day 28 and/or 10 mM BSO drinking water 3 weeks, exponential growth fit, [95% CI], 8 to 10 mice per group
Method: as §1

[6] = tested on: MIA-PACA-2 pancreatic adenocarcinoma cell line; conditions: 5 MBq 177Lu-DOTATATE for 4 h and/or BSO 10^−7 M from the day before irradiation until day 10, crystal violet day 10, % of non-treated, mean ± SEM, n = 12 from 3 independent experiments
[7] = tested on: total glutathione in MM162 cells; assay: Total glutathione quantification, MM162; type: cell-based, human; conditions: 10^−7 M BSO for 18 h, vs non-treated, mean ± SEM, n = 6 from 2 independent experiments
Method: as §3

MM162 melanoma cell line = conditions: 5 MBq 177Lu-DOTATATE for 4 h and/or BSO 10^−7 M from the day before irradiation until day 10, crystal violet day 10, % of non-treated, mean ± SEM, n = 12 from 3 independent experiments
[8] = tested on: total glutathione in EJM cells; assay: Total glutathione quantification, EJM; type: cell-based, human; conditions: 10^−7 M BSO for 18 h, vs non-treated, mean ± SEM, n = 6 from 2 independent experiments
Method: as §3

[9] = tested on: EJM multiple myeloma cell line; conditions: 5 MBq 177Lu-DOTATATE for 4 h and/or BSO 10^−7 M from the day before irradiation until day 10, crystal violet day 10, % of non-treated, mean ± SEM, n = 12 from 3 independent experiments
[10] = tested on: total glutathione in MIA-PACA-2 cells; assay: Total glutathione quantification, MIA-PACA-2; type: cell-based, human; conditions: 10^−7 M BSO for 18 h, vs non-treated, mean ± SEM, n = 6 from 2 independent experiments
Method: as §3

[11] = tested on: total glutathione in HT-29 cells; assay: Total glutathione quantification, HT-29; type: cell-based, human; conditions: 10^−7 M BSO for 18 h, vs non-treated, n = 6 from 2 independent experiments
Method: as §3

[12] = tested on: total glutathione in HBL cells; assay: Total glutathione quantification, HBL; type: cell-based, human; conditions: 10^−7 M BSO for 18 h, vs non-treated, mean ± SEM, n = 6 from 2 independent experiments
Method: as §3

[13] = tested on: HT-29 colon adenocarcinoma cell line; conditions: 5 MBq 177Lu-DOTATATE for 4 h and/or BSO 10^−7 M from the day before irradiation until day 10, crystal violet day 10, % of non-treated, mean ± SEM, n = 12 from 3 independent experiments
[14] = Water intake and tolerability in mice; conditions: EJM xenograft nude mice; BSO 10 mM in drinking water; 30 MBq 177Lu-DOTATATE IV
Method: as §1

[15] = design: method as in PMID 27092812, PMID 8270977, PMID 8558205, PMID 9392620; conditions: early-phase clinical studies on solid tumours; cited from earlier work
liver = assay: H&E staining of liver; conditions: mouse, in vivo
Method: as §2

bone marrow [16] = assay: Bone marrow apoptosis assessment (Annexin V/7-AAD); type: in vivo, mouse; conditions: mice sacrificed 29 to 38 days post-177Lu-DOTATATE injection; Annexin V/7-AAD flow cytometry; mean ± SEM; 3 to 4 mice per group
Method: At the time of sacrifice, bone marrow (BM) was harvested from both femurs (containing hematopoietically active marrow) of the animals. Femurs were excised from each mouse, and then the attached muscle was trimmed from the periosteal surface and the bone was opened at the distal end. BM was isolated using the cytocentrifuge method. In brief, the femur was placed in a 0.5 mL Eppendorf tube pre-punctured with a needle at the base of the tube to form an opening. The 0.5 mL tube was nested within a 1.5 mL Eppendorf tube, and both were centrifuged at 10,000 rpm for 15 s to form a BM pellet at the bottom of the 1.5 mL Eppendorf tube yet to retain the femur within the 0.5 mL tube. • Bone marrow smears and cytological assessment. BM samples were assayed for apoptosis. A 10 min incubation step at 37 °C with NH4Cl was performed for red blood cell lysis. Samples were then centrifuged for 5 min, and the supernatant containing lysed red blood cells was discarded. Samples were then incubated with Annexin-V Binding Buffer (ThermoFisher, Waltham, MA, USA), Annexin V (BD Biosciences, Franklin Lakes, NJ, USA) and 7-AAD (BD Biosciences, Franklin Lakes, NJ, USA) for 15 min at room temperature. Annexin Buffer was added to samples that were subsequently analysed using a MACSQuant Analyzer 10 Flow Cytometer (Miltenyi Biotec, Bergisch Gladbach, Germany).

bone marrow [17] = assay: Bone marrow smears and cytological assessment; type: in vivo, mouse; conditions: 29 to 38 days p.i.
Method: At the time of sacrifice, bone marrow (BM) was harvested from both femurs (containing hematopoietically active marrow) of the animals. Femurs were excised from each mouse, and then the attached muscle was trimmed from the periosteal surface and the bone was opened at the distal end. BM was isolated using the cytocentrifuge method. In brief, the femur was placed in a 0.5 mL Eppendorf tube pre-punctured with a needle at the base of the tube to form an opening. The 0.5 mL tube was nested within a 1.5 mL Eppendorf tube, and both were centrifuged at 10,000 rpm for 15 s to form a BM pellet at the bottom of the 1.5 mL Eppendorf tube yet to retain the femur within the 0.5 mL tube. • Bone marrow smears and cytological assessment.
BM smears were prepared using the push-slide technique. In brief, one drop of BM was placed at one extremity of a glass slide and was then spread in an even film using a second glass slide (held at an angle) as a spreader. The spreader slide was slid forward the length of the slide to produce a smear. Slides were fixed in absolute methanol for 5 min and then air-dried. May-Grunwald–Giemsa staining was used for routine evaluation of BM cytomorphology. […] A qualitative and quantitative cytological evaluation of all the major lineages was performed by an experienced clinical pathologist on 300 to 500 cells. • Bone marrow apoptosis assessment.

EJM xenograft mice = assay: Ex vivo biodistribution and time-activity curves; type: in vivo, mouse; conditions: 30 MBq 177Lu-DOTATATE IV ± 10 mM BSO via drinking water, single exponential fit of time-activity curve, n = 1 to 6 mice per group
Method: as §1

## CCCCS(=N)(=O)CC[C@H](N)C(=O)O (stereo partly drawn) [BSO, L-Buthionine-(S,R)-Sulfoximine]
HBL melanoma cell line
  cell survival: 81.2 ± 3.8%
[1]
  tumour GSH depletion: ~ 80%
kidneys
  kidney histology (H&E): No morphological changes were observed
[2]
  estimated half-life in plasma: less than 2 h
[3]
  cell survival: did not affect cell lines survival
[4]
  change in total glutathione levels: not affected
[5]
  Tumour doubling time: 7.5 days and 7.5 [6.3 – 9.1] days
[6]
  cell survival: 87.6 ± 3.8%
[7]
  change in total glutathione levels: −11.1 ± 3.7%
MM162 melanoma cell line
  cell survival: did not affect cell lines survival
[8]
  change in total glutathione levels: −9.4 ± 2.2%
[9]
  cell survival: did not affect cell lines survival
[10]
  change in total glutathione levels: −20.7 ± 3.5%
[11]
  change in total glutathione levels: not affected
[12]
  change in total glutathione levels: −21.5 ± 3.0%
[13]
  cell survival: did not affect cell lines survival
[14]
  water intake: 5.6 ± 0.6 mL/day/mouse
[15]
  adverse events caused by BSO alone: only grade 1–2 nausea and vomiting
liver
  liver histology (H&E): No morphological changes were observed

## C[C@@H](O)[C@H](NC(=O)[C@@H]1CSSC[C@H](NC(=O)[C@@H](Cc2ccccc2)NC(=O)CN2CCN(CC(=O)O)CCN(CC(=O)O)CCN(CC(=O)O)CC2)C(=O)N[C@@H](Cc2ccc(O)cc2)C(=O)N[C@H](Cc2c[nH]c3ccccc23)C(=O)N[C@@H](CCCCN)C(=O)N[C@@H]([C@@H](C)O)C(=O)N1)C(=O)O [^177Lu-DOTATATE, metal not drawn]
kidneys
  kidney histology (H&E): No morphological changes were observed
Bone marrow [16]
  BM apoptotic cells: 33.0 ± 2.8%
Bone marrow [17]; BM smears, May-Grunwald–Giemsa, 3 to 4 mice per group
  relative proportion of BM lineages (erythroid, granulocytic, lymphoid), between treatment groups: no significant differences
Bone marrow [17]; major BM lineages including megakaryocytes
  qualitative assessment of BM smears (morphology): did not show any morphological abnormalities
[14]
  water intake: 5.2 ± 0.5 mL/day/mouse
liver
  liver histology (H&E): No morphological changes were observed
EJM xenograft mice
  effective half-life in the kidneys: 13.7 h
  effective half-life in the liver: 24 h

From publication PMC10137255, “Disturbing the Redox Balance Using Buthionine Sulfoximine Radiosensitized Somatostatin Receptor-2 Expressing Pre-Clinical Models to Peptide Receptor Radionuclide Therapy with ^177Lu-DOTATATE” (Cancers, 2023)
